From patent US20080261929A1, “COMBINATION OF PROGESTERONE-RECEPTOR ANTAGONIST TOGETHER WITH AN AROMATASE INHIBITOR FOR USE IN BRCA MEDIATED DISEASES” (priority 2007, published 2008)
Like-named read-outs stand apart in the source and are kept apart here.

Columns and labels:
progesterone receptor [1] = target: T1, progesterone receptor (Homo sapiens, UniProt P06401); test: Progesterone receptor protein expression/stability after siRNA knock down of BRCA1 (Example 1); assay type: cell-based
T1 sequence (P06401 1-933): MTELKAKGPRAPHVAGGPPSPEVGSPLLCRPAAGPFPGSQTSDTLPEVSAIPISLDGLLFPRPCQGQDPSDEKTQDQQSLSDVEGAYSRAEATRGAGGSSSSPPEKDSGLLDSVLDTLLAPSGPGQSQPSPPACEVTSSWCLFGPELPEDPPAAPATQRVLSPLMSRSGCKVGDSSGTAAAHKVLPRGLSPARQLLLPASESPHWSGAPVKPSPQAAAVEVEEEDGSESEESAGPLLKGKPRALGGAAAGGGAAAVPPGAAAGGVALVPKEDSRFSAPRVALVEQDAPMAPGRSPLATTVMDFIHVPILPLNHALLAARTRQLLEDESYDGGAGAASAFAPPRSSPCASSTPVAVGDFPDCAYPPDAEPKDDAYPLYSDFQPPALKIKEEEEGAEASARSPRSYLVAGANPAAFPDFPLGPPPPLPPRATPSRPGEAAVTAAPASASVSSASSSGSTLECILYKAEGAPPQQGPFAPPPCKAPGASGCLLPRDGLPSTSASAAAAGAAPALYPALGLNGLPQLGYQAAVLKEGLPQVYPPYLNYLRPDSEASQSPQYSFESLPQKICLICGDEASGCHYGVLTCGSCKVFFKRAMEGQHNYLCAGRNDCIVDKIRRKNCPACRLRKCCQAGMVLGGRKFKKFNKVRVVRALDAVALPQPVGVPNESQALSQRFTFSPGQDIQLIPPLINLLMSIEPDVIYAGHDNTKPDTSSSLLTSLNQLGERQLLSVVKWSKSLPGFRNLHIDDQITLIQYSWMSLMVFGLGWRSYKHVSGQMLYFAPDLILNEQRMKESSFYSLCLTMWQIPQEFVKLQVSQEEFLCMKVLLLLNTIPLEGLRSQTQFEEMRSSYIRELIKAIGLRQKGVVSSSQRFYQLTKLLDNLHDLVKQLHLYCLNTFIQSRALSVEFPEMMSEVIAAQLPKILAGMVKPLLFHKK
Method: MCF-7 and T47D mammary cells were stabely transfected with the aromatse gene. These cells grow with androstenedione stimulus. These cells were treated with siRNA knocking down the BRCA1 and BRCA2 gene.
In a second step cells were stimulated either with progesterone and/or with androstenedione. […] The effects on progesterone receptor protein expression were further investigated.

progesterone receptor [2] = target: T1, progesterone receptor; test: Progesterone receptor protein expression/stability after knock down of BRCA1 (Example 3)
Text: MCF-7 and T47D mammary cells stabely transfected with the aromatse gene. These cells grow with androstenedione stimulus in vivo. These cells were stabely transfected with shRNA knocking down the BRCA1 and BRCA2 gene. Cell growth in vivo in comparison to untransfected and mock transfected cells was compared. In a second step cells were implanted in immunodeficient nude mice and stimulated either with progesterone and/or with androstenedione. […] The effects on progesterone receptor protein expression were further investigated.

tumor cells = test: Apoptosis of tumor cells
progesterone receptor [3] = target: T1, progesterone receptor; details: cited from earlier work
mammary tumors = details: mice with rodent BRCA1- or BRCA2 inactivated in mammary glands; Poole et al., Science 2006; cited from earlier work
[4] = administered orally; cited from earlier work

SMILES	Effect on increased stability of progesterone receptor after BRCA1 knock down (progesterone receptor [1])	Effect on increased stability of progesterone receptor after BRCA1 knock down (progesterone receptor [2])	Apoptosis of tumor cells (tumor cells)	Antiprogestagenic activity (progesterone receptor [3]; Fuhrmann et al., J. Med. Chem. 2000)	Other endocrinological (side) effects, e.g. androgen, estrogen or antiglucocorticoid activity (progesterone receptor [3])	Other endocrinological (side) effects, e.g. androgen, estrogen or antiglucocorticoid activity (progesterone receptor [3]; listed as ZK230211)	Development of mammary tumors (mammary tumors)	Bioavailability [4]
CC(=O)c1ccc([C@H]2C[C@@]3(C)[C@@H](CC[C@@]3(O)C(F)(F)C(F)(F)F)[C@@H]3CCC4=CC(=O)CCC4=C32)cc1 [11β-(4-acetylphenyl)-17β-hydroxy-17α-(1,1,2,2,2-pentafluoroethyl)-estra-4,9-dien-3-one]	could be antagonized	could be antagonized	increased apoptosis of tumor cells	high antiprogestagenic activity	only very weak or no endocrine side effects	little or no other endocrinological effects		
CC#C[C@]1(O)CC[C@H]2[C@@H]3CCC4=CC(=O)CCC4=C3[C@@H](c3ccc(N(C)C)cc3)C[C@@]21C [mifepristone]							blocks the development of mammary tumors	poor bioavailability
